Laboratory results taken from patent US20260285850A1, “SUBSTITUTED OXAZOLIDINONES AND IMIDAZOLINONES AS HERBICIDES” (FMC CORPORATION, priority 2023, published 2026).

Assays:
Assay type in all cases: in vivo
[1] = test system: ryegrass, Italian (italian ryegrass, Lolium multiflorum); experiment: Test A postemergence application, visual injury rating 0-100
Method in brief: (§1)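 Greenhouse test: loam/sand pots received a surfactant-containing formulation, as a preemergence directed soil spray or a postemergence spray on young plants. Injury was judged visually at day 10 relative to untreated controls.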

[2] = test system: barnyardgrass (Echinochloa crus-galli); experiment: as above
Method in brief: as §1

[3] = test system: horseweed (Erigeron canadensis); experiment: as above
Method in brief: as §1

[4] = test system: oat, wild (wild oat, Avena fatua); experiment: as above
Method in brief: as §1

[5] = test system: wheat (Triticum aestivum); experiment: as above
Method in brief: as §1

kochia (Bassia scoparia) [6] = experiment: as above
Method in brief: as §1

corn (Zea mays) [7] = experiment: as above
Method in brief: as §1

[8] = test system: galium (catchweed bedstraw, Galium aparine); experiment: as above
Method in brief: as §1

[9] = test system: green foxtail (Setaria viridis); experiment: as above
Method in brief: as §1

[10] = test system: ragweed (common ragweed, Ambrosia artemisiifolia); experiment: as above
Method in brief: as §1

soybean (Glycine max) [11] = experiment: as above
Method in brief: as §1

[12] = test system: palmer (palmer amaranth, palmer pigweed, Amaranthus palmeri); experiment: as above
Method in brief: as §1

[13] = test system: blackgrass (Alopecurus myosuroides); experiment: as above
Method in brief: as §1

[14] = test system: ducksalad (Heteranthera limosa); experiment: Test B flooded paddy test, visual plant response rating 0-100; details: 250 g ai/ha, Flood, applied to paddy water, evaluated after 13 days
Method in brief: (§2)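 In this flooded assay, 2-leaf seedlings received compound through the water layer, kept at 3 cm over the soil. Plants were held 13 days in a greenhouse and then visually compared with control pots.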

[15] = test system: barnyardgrass (Echinochloa crusgalli); experiment: as above; details: 250 g ai/ha, Flood, applied to paddy water, evaluated after 13 days
Method in brief: as §2

[16] = test system: sedge, umbrella (small-flower umbrella sedge, Cyperus difformis); experiment: as above; details: 250 g ai/ha, Flood, applied to paddy water, evaluated after 13 days
Method in brief: as §2

rice (Oryza sativa) = experiment: as above; details: 250 g ai/ha, Flood, applied to paddy water, evaluated after 13 days
Method in brief: as §2

[17] = test system: ryegrass, Italian (italian ryegrass, Lolium multiflorum); experiment: Test A preemergence soil spray, visual injury rating 0-100; details: 10 days
Method in brief: as §1

[18] = test system: barnyardgrass (Echinochloa crus-galli); experiment: as above; details: 10 days
Method in brief: as §1

[19] = test system: oat, wild (wild oat, Avena fatua); experiment: as above; details: 10 days
Method in brief: as §1

[20] = test system: wheat (Triticum aestivum); experiment: as above; details: 10 days
Method in brief: as §1

kochia (Bassia scoparia) [21] = experiment: as above; details: 10 days
Method in brief: as §1

corn (Zea mays) [22] = experiment: as above; details: 10 days
Method in brief: as §1

[23] = test system: green foxtail (Setaria viridis); experiment: as above; details: 10 days
Method in brief: as §1

[24] = test system: ragweed (common ragweed, Ambrosia artemisiifolia); experiment: as above; details: 10 days
Method in brief: as §1

soybean (Glycine max) [25] = experiment: as above; details: 10 days
Method in brief: as §1

[26] = test system: palmer (palmer amaranth, palmer pigweed, Amaranthus palmeri); experiment: as above; details: 10 days
Method in brief: as §1

[27] = test system: blackgrass (Alopecurus myosuroides); experiment: as above; details: 10 days
Method in brief: as §1

[28] = 62 g ai/ha, postemergence, 10 days, 0 = no effect, 100 = complete control
[29] = Postemergence, 16 g ai/ha, greenhouse 10 days, 0 no effect, 100 complete control
[30] = 62 g ai/ha, 0 = no effect, 100 = complete control

With `CCOC(=O)C1CC(NC(=O)C2(C)CN(c3cc(F)cc(F)c3)C(=O)O2)C1` (stereo not shown) [Compound 125] the “Ryegrass, Italian plant response rating (0-100)” value [1, 28] was 70, the “Ryegrass, Italian plant response rating (0 to 100 scale)” value [1, 29] was 20 and the “Barnyardgrass plant response rating (0-100)” value [2, 28] was 100. For the same compound, the “Barnyardgrass plant response rating (0 to 100 scale)” value [2, 29] was 60, the “Horseweed plant response rating (0-100)” value [3, 28] was 20 and the “Horseweed plant response rating (0 to 100 scale)” value [3, 29] was 0. The “Oat, Wild plant response rating (0-100)” value [4, 28] was 90, the “Oat, Wild plant response rating (0 to 100 scale)” value [4, 29] was 50 and the “Wheat plant response rating (0-100)” value [5, 28] was 90. The “Wheat plant response rating (0 to 100 scale)” value [5, 29] was 80, the “Kochia plant response rating (0-100)” value (kochia (Bassia scoparia) [6]; [28]) was 80 and the “Kochia plant response rating (0 to 100 scale)” value (kochia (Bassia scoparia) [6]; [29]) was 30. The “Corn plant response rating (0-100)” value (corn (Zea mays) [7]; [28]) was 100, the “Corn plant response rating (0 to 100 scale)” value (corn (Zea mays) [7]; [29]) was 90 and the “Galium plant response rating (0-100)” value [8, 28] was 60. The “Galium plant response rating (0 to 100 scale)” value [8, 29] was 30, the “Foxtail, Green plant response rating (0-100)” value [9, 28] was 90 and the “Foxtail, Green plant response rating (0 to 100 scale)” value [9, 29] was 80. For the same compound, the “Ragweed plant response rating (0-100)” value [10, 28] was 50, the “Ragweed plant response rating (0 to 100 scale)” value [10, 29] was 20 and the “Soybean plant response rating (0-100)” value (soybean (Glycine max) [11]; [28]) was 70. For the same compound, the “Soybean plant response rating (0 to 100 scale)” value (soybean (Glycine max) [11]; [29]) was 50, the “Pigweed, Palmer plant response rating (0-100)” value [12, 28] was 70 and the “Pigweed, Palmer plant response rating (0 to 100 scale)” value [12, 29] was 10. The “Blackgrass plant response rating (0-100)” value [13, 28] was 90, the “Blackgrass plant response rating (0 to 100 scale)” value [13, 29] was 90 and the “Plant response rating, Ducksalad (0 to 100 scale, 0 is no effect and 100 is complete control)” value [14] was 0. The “Plant response rating, Barnyardgrass (0 to 100 scale, 0 is no effect and 100 is complete control)” value [15] was 0, the “Plant response rating, Sedge, Umbrella (0 to 100 scale, 0 is no effect and 100 is complete control)” value [16] was 0 and the “Plant response rating, Rice (0 to 100 scale, 0 is no effect and 100 is complete control)” value (rice (Oryza sativa)) was 0. The “Ryegrass, Italian plant response rating” value ([17]; 16 g ai/ha, 0 to 100 scale) was 0, the “Ryegrass, Italian plant response rating (0-100)” value [17, 30] was 90 and the “Barnyardgrass plant response rating” value ([18]; 16 g ai/ha, 0 to 100 scale) was 0. For the same compound, the “Barnyardgrass plant response rating (0-100)” value [18, 30] was 50, the “Oat, Wild plant response rating” value ([19]; 16 g ai/ha, 0 to 100 scale) was 90 and the “Oat, Wild plant response rating (0-100)” value [19, 30] was 90. For the same compound, the “Wheat plant response rating” value ([20]; 16 g ai/ha, 0 to 100 scale) was 30, the “Wheat plant response rating (0-100)” value [20, 30] was 60 and the “Kochia plant response rating” value (kochia (Bassia scoparia) [21]; 16 g ai/ha, 0 to 100 scale) was 0. For the same compound, the “Kochia plant response rating (0-100)” value (kochia (Bassia scoparia) [21]; [30]) was 90, the “Corn plant response rating” value (corn (Zea mays) [22]; 16 g ai/ha, 0 to 100 scale) was 0 and the “Corn plant response rating (0-100)” value (corn (Zea mays) [22]; [30]) was 90. For the same compound, the “Foxtail, Green plant response rating” value ([23]; 16 g ai/ha, 0 to 100 scale) was 10, the “Foxtail, Green plant response rating (0-100)” value [23, 30] was 90 and the “Ragweed plant response rating” value ([24]; 16 g ai/ha, 0 to 100 scale) was 0. The “Ragweed plant response rating (0-100)” value [24, 30] was 20, the “Soybean plant response rating” value (soybean (Glycine max) [25]; 16 g ai/ha, 0 to 100 scale) was 10 and the “Soybean plant response rating (0-100)” value (soybean (Glycine max) [25]; [30]) was 0. The “Pigweed, Palmer plant response rating” value ([26]; 16 g ai/ha, 0 to 100 scale) was 20, the “Pigweed, Palmer plant response rating (0-100)” value [26, 30] was 50 and the “Blackgrass plant response rating” value ([27]; 16 g ai/ha, 0 to 100 scale) was 50. For the same compound, the “Blackgrass plant response rating (0-100)” value [27, 30] was 90.
